# Experiments:
# [1] = test system: IgE antibody present in the serum of a wheat-allergic patient; assay: Wheat epitope mapping (1): peptide array of overlapping 15-amino-acid peptides, chemiluminescence; assay type: binding, human; conditions: bound = chemiluminescence value minus N2nd value of 5 non-wheat-allergic subjects at least 35,000; serum of 49 patients
# Description: Epitope mapping was carried out using a library of overlapping peptides (length: 15 amino acids) corresponding to the amino acid sequences identified as allergy components of wheat. Specifically, the library of overlapping peptides was prepared on the basis of the amino acid sequences of SEQ ID NOs: 2, 4, 6, 8, 10, 12, 14, 16, 18, 20, 22, 24, 26 and 28.
# The peptides to be synthesized were shifted by 10 amino acids.
# For preparation of peptide arrays, the Intavis CelluSpots™ technique was used. Specifically, the peptide arrays were prepared by the following procedure: (1) synthesizing peptides of interest on amino-modified cellulose disks using an automated chemical synthesis apparatus (Intavis MultiPep RS), (2) dissolving the amino-modified cellulose disks to obtain a cellulose-bound peptide solution, and (3) spotting the cellulose-bound peptides onto coated glass slides. The details of each procedure are as described below.
# Peptide synthesis was carried out in incremental steps through 9-fluorenylmethoxycarbonyl (Fmoc) chemical reaction on amino-modified cellulose disks in 384-well synthesis plates. Specifically, amino acids in which a Fmoc group is bonded to an amino group were activated in a solution of N,N′-diisopropylcarbodiimide (DIC) and 1-hydroxybenzotriazole (HOBt) in dimethylformamide (DMF) and added dropwise to the cellulose disks so that the Fmoc group-bound amino acids were bound to the amino groups on the cellulose disks (coupling). Unreacted amino groups were capped with acetic anhydride and washed with DMF. Furthermore, the Fmoc groups were eliminated from the amino groups of the amino acids bound to the amino groups on the cellulose disks by treatment with piperidine and washing with DMF. The amino acids bound to the amino groups on the cellulose disks were repetitively subjected to the coupling, the capping, and the Fmoc group elimination described above to elongate the amino terminus for peptide synthesis.
# The peptides-bound cellulose disks of interest obtained above in the subsection titled “(1) Synthesis of peptide” were transferred to 96-well plates and treated with a side chain deprotection mixed solution of trifluoroacetic acid (TFA), dichloromethane, triisopropylsilane (TIPS), and water for deprotection of amino acid side chains. Then, the deprotected cellulose-bound peptides were dissolved in a mixed solution of TFA, […] acid (TFMSA), TIPS, and water and precipitated in […] methyl ether (TBME), and the precipitate was resuspended in dimethyl sulfoxide (DMSO) and mixed with a mixed solution of NaCl, sodium citrate, and water to obtain a peptide solution for slide spotting.
# The peptide solution for slide spotting obtained above in the subsection titled “(2) Dissolution of amino-modified cellulose disk” was spotted onto Intavis CelluSpots™ slides using Intavis Slide Spotting Robot, and the slides were dried to prepare peptide arrays.
# The presence or absence of binding, to each peptide fragment, of an IgE antibody present in the serum of a wheat-allergic patient was measured through antigen-antibody reaction using the peptide arrays. […]
# [2] = test system: IgE antibodies from patients; assay: Wheat epitope mapping (2): overlapping 10-amino-acid peptide fragments shifted by one amino acid; assay type: binding, human;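 for Rank of partial sequence as epitope binding to IgE antibody: key = sequence deemed particularly important within the common 15-residue sequence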;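 for epitope sequence binding to IgE antibody, rank (Key/Preferably/More preferably): key of grades: preferably = shorter partial sequence still acting as epitope; more preferably = sequence improving IgE binding; key = particularly important sequence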
# How it was run: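 Cellulose-bound 10-mer peptides offset by one residue were probed with patient serum IgE and detected by chemiluminescence. Secondary-antibody-only signals were subtracted per peptide. Residual binding was expressed as % of the parent overlapping peptide, scored as none (<30%), poor (30–<50%), somewhat poor (50–<70%) or retained (≥70%).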
# [3] = serum of patient P35 (WDEIA), sequence without X
# [4] = serum of patient P26 (WDEIA), sequence without X
# [5] = serum of patient P10 (WDEIA), sequence without X
# [6] = serum of patient P15 (WDEIA), sequence without X
# [7] = serum of patient P31 (WDEIA), sequence without X
# [8] = serum of patient P29 (WDEIA), sequence without X
# [9] = serum of patient G7 (adult, general immediate type allergy to wheat), partial sequence
substance,measurement,setting,value
SEQ ID NO: 2068: common 15-residue epitope sequence of polypeptide (E35) (PPYCTIAPFGIFGTN; REGION 1..15: note = epitope),binding of patient-specific IgE antibodies to 15-residue peptide,[1],confirmed to bind
SEQ ID NO: 2674: common 15-residue epitope sequence of polypeptide (E46) (YKGPTLLEALDQINE; REGION 1..15: note = epitope),binding of patient-specific IgE antibodies to 15-residue peptide,[1],confirmed to bind
1488 (YLQPQQPIS; REGION 1..9: note = epitope) [compound 1488],Rank of partial sequence as epitope binding to IgE antibody,[2]; [3],Key
2435 (KAWSGKTEN; REGION 1..9: note = epitope) [compound 2435],"Epitope sequence binding to IgE antibody, rank of the sequence (Key/Preferably/More preferably)",[2]; [4],Preferably
2277 (DKRVIERFEK; REGION 1..10: note = epitope) [compound 2277],"Epitope sequence binding to IgE antibody, rank of the sequence (Key/Preferably/More preferably)",[2]; [5],Key
1391 (QPLPPQQQ; REGION 1..8: note = epitope) [compound 1391],"Epitope sequence binding to IgE antibody, rank of the sequence",[2]; [6],Key
2647 (KEAAEM; REGION 1..6: note = epitope) [compound 2647],"Epitope sequence binding to IgE antibody, rank of the sequence","[2]; serum of patient P26 (WDEIA), partial sequence",Key
1432 (SQQQAQ; REGION 1..6: note = epitope) [compound 1432],Rank of partial sequence as epitope binding to IgE antibody,[2]; [6],Key
2302 (IDKRVIERFE; REGION 1..10: note = epitope) [compound 2302],"Epitope sequence binding to IgE antibody, rank of the sequence (Key/Preferably/More preferably)","[2]; serum of patient G4 (adult, general immediate type allergy to wheat), sequence without X",Key
2493 (SSQVSF; REGION 1..6: note = epitope) [compound 2493],"Epitope sequence binding to IgE antibody, rank of the sequence","[2]; serum of patient P2 (WDEIA), partial sequence",Preferably
1269 (LPRS; REGION 1..4: note = epitope) [compound 1269],"Epitope sequence binding to IgE antibody, rank of the sequence","[2]; serum of patient P20 (WDEIA), sequence without X",Key
2499 (SQVSF; REGION 1..5: note = epitope) [compound 2499],"Epitope sequence binding to IgE antibody, rank of the sequence","[2]; serum of patient P8 (WDEIA), partial sequence",Preferably
1913 (QVPLVQQ; REGION 1..7: note = epitope) [compound 1913],"epitope sequence binding to IgE antibody, rank (Key/Preferably/More preferably)",[2]; serum of patient P8 (WDEIA),Key
2399 (TEIV; REGION 1..4: note = epitope) [compound 2399],"Epitope sequence binding to IgE antibody, rank of the sequence (Key/Preferably/More preferably)",[2]; [3],Key
2239 (NYRVAI; REGION 1..6: note = epitope) [compound 2239],"Epitope sequence binding to IgE antibody, rank of the sequence (Key/Preferably/More preferably)",[2]; [7],Key
1623 (YNPD; REGION 1..4: note = epitope) [compound 1623],Rank of partial sequence as epitope binding to IgE antibody,"[2]; serum of patient P25 (WDEIA), sequence without X",Key
1210 (PIQQQP; REGION 1..6: note = epitope) [compound 1210],"Epitope sequence binding to IgE antibody, rank of the sequence (Key/Preferably/More preferably/Further preferably)","[2]; serum of patient P2 (WDEIA), sequence without X",Preferably
1778 (KVGY; REGION 1..4: note = epitope) [compound 1778],"epitope sequence binding to IgE antibody, rank (Key/Preferably/More preferably)","[2]; serum of patient G2 (adult, general immediate type allergy to wheat)",Key
1489 (QQPISQQQAQ; REGION 1..10: note = epitope) [compound 1489],Rank of partial sequence as epitope binding to IgE antibody,[2]; [3],Preferably
1873 (TVRTLQR; REGION 1..7: note = epitope) [compound 1873],"epitope sequence binding to IgE antibody, rank (Key/Preferably/More preferably)",[2]; serum of patient P30 (WDEIA),Key
1468 (YLQPQQP; REGION 1..7: note = epitope) [compound 1468],Rank of partial sequence as epitope binding to IgE antibody,[2]; [4],Key
1523 (QVPLVQQQQF; REGION 1..10: note = epitope) [compound 1523],Rank of partial sequence as epitope binding to IgE antibody,[2]; [5],Further preferably
1860 (TVRTLQ; REGION 1..6: note = epitope) [compound 1860],"epitope sequence binding to IgE antibody, rank (Key/Preferably/More preferably)",[2]; serum of patient P19 (WDEIA),Key
2253 (RNYRVAI; REGION 1..7: note = epitope) [compound 2253],"Epitope sequence binding to IgE antibody, rank of the sequence (Key/Preferably/More preferably)","[2]; serum of patient P52 (child, general immediate type allergy to wheat), sequence without X",Preferably
2726 (KIGG; REGION 1..4: note = epitope) [compound 2726],"Epitope sequence binding to IgE antibody, rank of the sequence","[2]; serum of patient P27 (WDEIA), partial sequence",Key
1712 (EAANF; REGION 1..5: note = epitope) [compound 1712],"epitope sequence binding to IgE antibody, rank (Key/Preferably/More preferably)",[2]; serum of patient P34 (WDEIA),Key
2637 (KEAAEM; REGION 1..6: note = epitope) [compound 2637],"Epitope sequence binding to IgE antibody, rank of the sequence","[2]; serum of patient P10 (WDEIA), partial sequence",Preferably
1304 (NVEN; REGION 1..4: note = epitope) [compound 1304],"Epitope sequence binding to IgE antibody, rank of the sequence","[2]; serum of patient P3 (WDEIA), sequence without X",Key
2276 (GGIDK; REGION 1..5: note = epitope) [compound 2276],"Epitope sequence binding to IgE antibody, rank of the sequence (Key/Preferably/More preferably)",[2]; [5],Key
1256 (PQQPP; REGION 1..5: note = epitope) [compound 1256],"Epitope sequence binding to IgE antibody, rank of the sequence","[2]; serum of patient P36 (WDEIA), sequence without X",Key
2233 (IRNYRVAI; REGION 1..8: note = epitope) [compound 2233],"Epitope sequence binding to IgE antibody, rank of the sequence (Key/Preferably/More preferably)",[2]; [8],Preferably
1814 (KELEAL; REGION 1..6: note = epitope) [compound 1814],"epitope sequence binding to IgE antibody, rank (Key/Preferably/More preferably)",[2]; serum of patient P27 (WDEIA),Key
1707 (SQVIIM; REGION 1..6: note = epitope) [compound 1707],Rank of partial sequence as epitope binding to IgE antibody,[2]; [8],Key
1930 (FPGQQQ; REGION 1..6: note = epitope) [compound 1930],"epitope sequence binding to IgE antibody, rank (Key/Preferably/More preferably)",[2]; serum of patient P15 (WDEIA),Key
2270 (DKRVIERFEK; REGION 1..10: note = epitope) [compound 2270],"Epitope sequence binding to IgE antibody, rank of the sequence (Key/Preferably/More preferably)","[2]; serum of patient P7 (WDEIA), sequence without X",Key
1179 (QQFPPQQ; REGION 1..7: note = epitope) [compound 1179],"Epitope sequence binding to IgE antibody, rank of the sequence","[2]; serum of patient P12 (WDEIA), sequence without X",Preferably
1770 (VSSYLKK; REGION 1..7: note = epitope) [compound 1770],"epitope sequence binding to IgE antibody, rank (Key/Preferably/More preferably)","[2]; serum of patient P50 (child, general immediate type allergy to wheat)",Key
1782 (VSSYLKKVGY; REGION 1..10: note = epitope) [compound 1782],"epitope sequence binding to IgE antibody, rank (Key/Preferably/More preferably)","[2]; serum of patient G4 (adult, general immediate type allergy to wheat)",Key
1500 (YLQPQQPIS; REGION 1..9: note = epitope) [compound 1500],Rank of partial sequence as epitope binding to IgE antibody,"[2]; serum of patient G7 (adult, general immediate type allergy to wheat), sequence without X",Preferably
1633 (YNPD; REGION 1..4: note = epitope) [compound 1633],Rank of partial sequence as epitope binding to IgE antibody,[2]; [7],Key
1959 (QFPGQQ; REGION 1..6: note = epitope) [compound 1959],"epitope sequence binding to IgE antibody, rank (Key/Preferably/More preferably)",[2]; serum of patient P28 (WDEIA),Preferably
2673 (EAAEMNKR; REGION 1..8: note = epitope) [compound 2673],"Epitope sequence binding to IgE antibody, rank of the sequence",[2]; [9],Key
2672 (RFEKEAAEMN; REGION 1..10: note = epitope) [compound 2672],"Epitope sequence binding to IgE antibody, rank of the sequence",[2]; [9],Key
2230 (IRNYRV; REGION 1..6: note = epitope) [compound 2230],"Epitope sequence binding to IgE antibody, rank of the sequence (Key/Preferably/More preferably)","[2]; serum of patient P21 (WDEIA), sequence without X",Key
1454 (QQPISQQQAQ; REGION 1..10: note = epitope) [compound 1454],Rank of partial sequence as epitope binding to IgE antibody,"[2]; serum of patient P22 (WDEIA), sequence without X",More preferably
